Results taken from the NIST ThermoML archive (doi:10.1021/je200178b).
Numbers after ± are expanded uncertainties.

Assay: mean ionic activity coefficient (dimensionless); mn = molality of the nth substance listed, in mol/kg
Conditions: 298.15 K, 101 kPa, Liquid, ion-selective electrode

[F-].[Rb+] [rubidium fluoride (RbF)] + O
Conditions	mean ionic activity coefficient
m1 = 0.0046	0.9305 ± 0.001
m1 = 0.0096	0.9047 ± 0.0009
m1 = 0.014	0.8889 ± 0.0006
m1 = 0.0187	0.8759 ± 0.0005
m1 = 0.0232	0.8654 ± 0.0004
m1 = 0.0275	0.8567 ± 0.0004
m1 = 0.0321	0.8486 ± 0.0003
m1 = 0.0367	0.8414 ± 0.0003
m1 = 0.0411	0.8351 ± 0.0003
m1 = 0.0506	0.8235 ± 0.0002
m1 = 0.0596	0.8141 ± 0.0002
m1 = 0.0685	0.806 ± 0.0002
m1 = 0.0772	0.799 ± 0.0002
m1 = 0.0915	0.7891 ± 0.0001
m1 = 0.1058	0.7806 ± 0.0001
m1 = 0.1293	0.769 ± 0.0001
m1 = 0.1517	0.7599 ± 0.0001
m1 = 0.1747	0.7521 ± 0.0001
m1 = 0.2107	0.7421 ± 0.0001
m1 = 0.2467	0.7342 ± 0.0001
m1 = 0.2819	0.7278 ± 0.0001
m1 = 0.3349	0.7202 ± 0.0001
m1 = 0.3859	0.7146 ± 0.0001
m1 = 0.4584	0.7086 ± 0.0001
m1 = 0.5332	0.7043 ± 0.0001
m1 = 0.6214	0.701 ± 0.0001

[Cs+].[F-] [cesium fluoride (CsF)] + O
Conditions	mean ionic activity coefficient
m1 = 0.0043	0.9338 ± 0.0011
m1 = 0.0085	0.9112 ± 0.0009
m1 = 0.0128	0.8953 ± 0.0007
m1 = 0.0172	0.8824 ± 0.0005
m1 = 0.0215	0.872 ± 0.0005
m1 = 0.0258	0.863 ± 0.0004
m1 = 0.0302	0.8551 ± 0.0003
m1 = 0.0346	0.848 ± 0.0003
m1 = 0.0391	0.8416 ± 0.0003
m1 = 0.0437	0.8355 ± 0.0002
m1 = 0.0523	0.8257 ± 0.0002
m1 = 0.0608	0.8173 ± 0.0002
m1 = 0.0698	0.8096 ± 0.0002
m1 = 0.0787	0.8028 ± 0.0002
m1 = 0.0875	0.7968 ± 0.0001
m1 = 0.1003	0.7892 ± 0.0001
m1 = 0.1138	0.7822 ± 0.0001
m1 = 0.1268	0.7762 ± 0.0001
m1 = 0.1455	0.7689 ± 0.0001
m1 = 0.1632	0.7629 ± 0.0001
m1 = 0.1817	0.7575 ± 0.0001
m1 = 0.2045	0.7517 ± 0.0001
m1 = 0.226	0.7471 ± 0.0001
m1 = 0.2524	0.7423 ± 0.0001
m1 = 0.2823	0.7377 ± 0.0001
m1 = 0.3166	0.7335 ± 0.0001
m1 = 0.3589	0.7294 ± 0.0001
m1 = 0.4086	0.7259 ± 0.0001
m1 = 0.4762	0.7227 ± 0.0001
